# In EP1200406B1, “CYCLIC AMIDES AND IMIDES HAVING SELECTIVE ANTAGONIST ACTIVITY AT ALPHA-1D ADRENERGIC RECEPTOR” (RECORDATI INDUSTRIA CHIMICA E FARMACEUTICA S.p.a., priority 1999, dated 2001):
# Test system: conscious rats with partial bladder-outlet obstruction
# Assay: Cystometry in conscious rats with infravesical outflow obstruction by partial urethral ligature
# Format: in vivo, Female Sprague Dawley rats
# Settings: 0.3 mg/kg i.v.
# Method: Effects on cystometric parameters in conscious rats with […] outflow obstruction by partial urethral ligature. Female Sprague Dawley rats of 225-275 g body weight [Crl: CD(SD)BR, from Charles River Italia, Calco, Como] were used. The animals were housed with free access to food and water and maintained on a forced 12 hour alternating light dark cycle at 22-24°C for at least one week, except during experiment performance. In order to obtain a partial obstruction of the urethra, the method previously reported by Malmgren (Malmgren A. et al., J. UroL 137, 1291-1294, 1987; Neurourol. […] Pharmacol. […] The rats were anaesthetised with intraperitoneal (i.p.) administration of 3 ml/kg of Equithensin solution (pentobarbital 1.215 g, chloral hydrate 5.312 g, magnesium sulphate 2.657 g, ethanol 12.5 ml, propylene glycol 49.5 ml, distilled water to 125 ml of final volume) and then the bladder and proximal urethra were exposed via an abdominal midline incision. A silk ligature was placed around the urethra and tied in the presence of an intraluminally placed indwelling polyethylene cannula with an outside diameter of 1.22 mm. After removing the polyethylene cannula, the abdominal wall was sutured and then antibiotic medication (penicillin G 200000 I.U./kg and streptomycin 260 mg/kg i.p.) was performed. After three weeks of obstruction the animals were prepared for cystometry. The animals, anesthetized as reported above, were placed in a supine position and a midline incision was made in the shaved and cleaned abdominal wall. The urinary bladder was exposed and gently freed from adhering tissues, emptied and then cannulated, via an incision at the dome, with a polyethylene cannula (0.58 mm inside diameter and 0.96 mm outside diameter), which was permanently sutured with silk thread. For intravenous bolus injection a similar polyethylene tubing filled with physiological saline containing sodium heparin (40 I.U./ml) was inserted into the jugular vein. The cannulae were exteriorised through a subcutaneous tunnel in the retroscapular area, where they were connected with a plastic adapter, in order to avoid the risk of removal by the animal. Two days after bladder catheter implantation, the animals, fasted overnight, were placed in Bollman's cages or in particular plastic cages which allowed some lateral and back and forth movement of the rats, allowing measurements of micturition volume (MV). After a stabilisation period of 20 minutes, the free tip of the bladder cannula was connected to a pressure transducer and to a peristaltic pump for a continuous infusion of warm saline solution (37° C), into the urinary bladder. In order to shorten the time-period of saline infusion necessary to provoke micturition in the obstructed rats, a filling rate of the bladder of 10 ml/h was chosen. During infusion of saline into the bladder, the intravesical pressure signal and urine volume micturated were continuously recorded on chart polygraph. […] BVC (in ml) was defined as the volume of saline infused into the bladder from the start of the infusion to micturition. […] MV (in ml), defined as the volume of expelled urine during each single micturition, was recorded by means of a force displacement transducer connected to the polygraph and measuring the urine collected in a small reservoir placed under the cage. Basal values of the parameters above reported were evaluated as the mean of the values obtained in two complete and reproducible cystometrograms before treatment (time 0). Then the animals were treated intravenously by bolus injection with the test compound under continuous infusion of saline into the bladder. The parameter changes after compound injection (first cystometrogram and those recorded approximately after 30 and 60 minutes) were compared with the values recorded before injection (basal values).
smiles,measurement,setting,value
"O=C1CC2(CCCC2)CC(=O)N1CCN1CCN(c2cc(Cl)ccc2Cl)CC1 [Example 1, 8-{2-[4-(2,5-Dichlorophenyl)-1-piperazinyl]-ethyl}-8-azaspiro[4.5]decane-7,9-dione]","BVC mean values, change",,20-30%
same,changes in MP values,,no significant changes
same,"BVC (bladder volume capacity), % changes vs basal values",30 minutes,22%
same,"MP (micturition pressure), % changes vs basal values",30 minutes,-7%
same,"MV (micturition volume), % changes vs basal values",30 minutes,42%
same,"NMC – A (non-micturition contractions, amplitude), % changes vs basal values",30 minutes,-33%
same,"NMC – F (non-micturition contractions, frequency), % changes vs basal values",30 minutes,-38%
same,"BVC (bladder volume capacity), % changes vs basal values",60 minutes,30%
same,"MP (micturition pressure), % changes vs basal values",60 minutes,-6%
same,"MV (micturition volume), % changes vs basal values",60 minutes,28%
same,"NMC – A (non-micturition contractions, amplitude), % changes vs basal values",60 minutes,-38%
same,"NMC – F (non-micturition contractions, frequency), % changes vs basal values",60 minutes,-23%
same,"BVC (bladder volume capacity), % changes vs basal values",First cystometrogram,26%
same,"MP (micturition pressure), % changes vs basal values",First cystometrogram,-2%
same,"MV (micturition volume), % changes vs basal values",First cystometrogram,35%
same,"NMC – A (non-micturition contractions, amplitude), % changes vs basal values",First cystometrogram,-35%
same,"NMC – F (non-micturition contractions, frequency), % changes vs basal values",First cystometrogram,-24%
same,frequency and amplitude of the non-voiding contractions,immediately after the injections,rapid decrease
